Test results from ChEMBL document CHEMBL1201862, “PubChem BioAssay data set” (2004).
Calls of active or inactive are those of the source.

Key:
Cytochrome P450 3A4 = Cytochrome P450 3A4 (Homo sapiens, UniProt P08684);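 also: CYP3A4 tested as one member of a cytochrome P450 panel screen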
Cytochrome P450 2C9 = Cytochrome P450 2C9 (Homo sapiens, UniProt P11712)
Cytochrome P450 2D6 = Cytochrome P450 2D6 (Homo sapiens, UniProt P10635);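 also: CYP2D6 member of a cytochrome P450 panel assay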
[1] = molecular target: Peroxisome proliferator-activated receptor gamma/Nuclear receptor coactivator 3 (Homo sapiens, UniProt P37231); assay: TR-FRET dose response biochemical High Throughput Screening assay for agonists of the steroid receptor coactivator 3 (SRC-3) recruitment by the peroxisome proliferator-activated receptor gamma (PPAR gamma): non-selective agonists. [Related pubchem assays: 1301 (Confirmation screen.), 1048 (Primary screen.)]; type: functional
[2] = molecular target: Peroxisome proliferator-activated receptor gamma/Nuclear receptor coactivator 2 (Homo sapiens, UniProt P37231); assay: (§1) TR-FRET dose response biochemical High Throughput Screening assay for agonists of the steroid receptor coactivator 2 (SRC-2) recruitment by the peroxisome proliferator-activated receptor gamma (PPAR gamma): non-selective agonists. [Related pubchem assays: 1297, 1032 ]; type: functional
[3] = molecular target: Peroxisome proliferator-activated receptor gamma/Nuclear receptor coactivator 1 (Homo sapiens, UniProt P37231); assay: as §1, with “1 (SRC-1)” for “2 (SRC-2)”, “assays (depositor defined):AID1300, AID1808, AID504735, AID631]” for “assays: 1297, 1032 ]”; type: protein assay
Large T antigen = Large T antigen (Simian virus 40, UniProt P03070); type: functional, Betapolyomavirus macacae;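 also: Confirmatory-stage PubChem screen for compounds that inhibit SV40 T antigen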
Vero = assay: viability of Vero cells under compound – cytotoxicity control for flavivirus capping enzyme inhibitors (AID 588742); type: functional; settings: Chlorocebus sabaeus
[4] = alpha-synuclein stem-loop luciferase translation blockers – H4 neuroglioma cells, luminescence, confirmation (AID 1988); type: functional, cell-based
[5] = toxicity toward HepG2 liver cells – cell-based, plate reader, cherry-pick, antagonist series, cytotoxicity control, dose response (AID 743416); type: functional
[6] = Luminescence Cell-Based Dose Response HTS to Identify Inhibitors of 5'UTR Stem-Loop Driven Prion Protein mRNA Translation in H4 Neuroglioblastoma Cells. [Related pubchem assays: 1827 (Project Summary), 1813 (Primary HTS)]; type: functional
[7] = blockade of melanocortin 4 receptor signaling – cell-based, plate reader, cherry pick, counter-screen for LGR2 antagonist project, dose response (AID 743444); type: functional;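 also: transfected HEK 293 cells stimulated with alpha-MSH peptide; potency of inhibitors of the alpha-MSH evoked signal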
[8] = A549 cell cytotoxicity, dose response, cytotoxicity control, plate reader, cherry-pick, antagonist series (AID 743412); type: functional, cell-based
HEK293 [9] = assay: EBV LMP1 TES2 canonical NF-kB signalling blockers – cell-based, HEK293, luciferase, cherry-pick, dose response (AID 588343); type: functional; settings: Homo sapiens
[10] = luciferase reporter signal suppression in cells – H4 neuroglioma cells, luminescence, dose response (AID 1990); type: functional, cell-based
[11] = viability of uninfected HEp-2 cells – cell-based, HTS, cytotoxicity control for RSV inhibitor project, dose response (AID 2410); type: functional; settings: human respiratory syncytial virus
[12] = blockers of bursicon-stimulated LGR2 cAMP reporter – cell-based, HEK293, CRE-luciferase reporter, cherry pick, set 2, dose response (AID 743343); type: functional;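 also: transfected cells were stimulated with diluted bursicon conditioned medium after compound addition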
HEK293 [13] = assay: membrane integrity loss in HEK cells – cell-based, fluorescence, cytotoxicity control for IDE activator project, dose response (AID 588440); type: functional; settings: Homo sapiens;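 also: cytotoxicity by LDH release measuring loss of membrane integrity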
HEK293 [14] = assay: optical interference in Abeta FP readout, dose response, artefact control for IDE activator project, biochemical, fluorescence polarization (AID 588442); type: functional, cell-based; settings: Homo sapiens
[15] = molecular target: T1, Voltage-gated N-type calcium channel alpha-1B subunit/Amyloid beta A4 precursor protein-binding family A member 1 (Homo sapiens, UniProt Q00975+Q02410); type: protein assay
[16] = molecular target: T1, Voltage-gated N-type calcium channel alpha-1B subunit/Amyloid beta A4 precursor protein-binding family A member 1; type: protein assay; remark: listed apart in the source
Streptokinase A = molecular target: T2, Streptokinase A (Streptococcus pyogenes serotype M1, UniProt P10520); assay: viability-normalized secreted streptokinase activity reduction – plasminogen activation absorbance, OD405, dose response (AID 1914); type: functional, Streptococcus pyogenes M1 GAS;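 also: secreted streptokinase activity via plasminogen activation per viability signal from cell pellet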
T2 sequence (P10520 whole entry): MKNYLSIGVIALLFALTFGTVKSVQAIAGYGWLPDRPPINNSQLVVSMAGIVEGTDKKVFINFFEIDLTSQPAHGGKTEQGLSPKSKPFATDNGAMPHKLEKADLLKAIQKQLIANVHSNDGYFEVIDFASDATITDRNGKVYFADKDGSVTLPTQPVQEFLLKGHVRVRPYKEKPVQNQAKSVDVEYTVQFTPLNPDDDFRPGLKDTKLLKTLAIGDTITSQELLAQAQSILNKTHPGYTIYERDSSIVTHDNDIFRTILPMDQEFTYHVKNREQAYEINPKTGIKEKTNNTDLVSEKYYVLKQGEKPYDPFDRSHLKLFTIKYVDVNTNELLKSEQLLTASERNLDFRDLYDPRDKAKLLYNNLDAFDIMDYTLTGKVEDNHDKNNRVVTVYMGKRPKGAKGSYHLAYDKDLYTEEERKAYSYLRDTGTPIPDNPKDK

[17] = tested on: Streptococcus sp. 'group A'; assay: Streptococcus pyogenes SK(-)GAS viability under kanamycin – luminescence, BacTiterGlo, confirmation, counter-screen for streptokinase expression inhibitor project, dose response (AID 1900); type: functional, organism-based
Streptococcus = assay: GAS UMAA2166 growth inhibition – luminescence, BacTiterGlo, counter-screen for streptokinase expression inhibitor project, dose response (AID 1915); type: functional, organism-based;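 also: potency for reduction of bacterial viability or growth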
[18] = molecular target: T3, Endoribonuclease toxin MazF (Escherichia coli K-12, UniProt P0AE70); assay: activation of MazEF endoribonuclease cleavage – biochemical, fluorescence, single-stranded RNA substrate, uHTS hits, dose response (AID 588481); type: functional
T3 sequence (P0AE70 whole entry): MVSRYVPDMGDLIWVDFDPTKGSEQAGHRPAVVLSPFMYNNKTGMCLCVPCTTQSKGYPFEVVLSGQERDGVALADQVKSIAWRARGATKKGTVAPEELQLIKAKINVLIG

[19] = molecular target: T3, Endoribonuclease toxin MazF; assay: substrate-only fluorescence increase artefacts – biochemical, single-stranded RNase substrate, counter-screen for MazEF activator project, dose response (AID 588502); type: functional

Chain of Cytochrome P450 2D6 (P10635 whole entry): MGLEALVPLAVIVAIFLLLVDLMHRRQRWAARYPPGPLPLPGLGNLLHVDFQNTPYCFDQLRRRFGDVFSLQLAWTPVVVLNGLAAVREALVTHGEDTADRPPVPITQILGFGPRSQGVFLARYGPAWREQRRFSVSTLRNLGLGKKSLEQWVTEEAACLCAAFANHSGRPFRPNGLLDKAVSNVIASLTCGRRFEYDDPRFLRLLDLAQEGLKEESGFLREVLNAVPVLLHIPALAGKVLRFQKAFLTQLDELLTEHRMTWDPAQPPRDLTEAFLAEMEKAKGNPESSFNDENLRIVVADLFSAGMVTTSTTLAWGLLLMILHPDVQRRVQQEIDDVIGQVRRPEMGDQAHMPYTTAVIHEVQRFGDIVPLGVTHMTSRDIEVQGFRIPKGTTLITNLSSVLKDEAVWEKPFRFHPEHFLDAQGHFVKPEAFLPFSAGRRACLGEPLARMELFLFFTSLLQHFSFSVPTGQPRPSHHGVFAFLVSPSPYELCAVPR
Chain of Cytochrome P450 3A4 (P08684 whole entry): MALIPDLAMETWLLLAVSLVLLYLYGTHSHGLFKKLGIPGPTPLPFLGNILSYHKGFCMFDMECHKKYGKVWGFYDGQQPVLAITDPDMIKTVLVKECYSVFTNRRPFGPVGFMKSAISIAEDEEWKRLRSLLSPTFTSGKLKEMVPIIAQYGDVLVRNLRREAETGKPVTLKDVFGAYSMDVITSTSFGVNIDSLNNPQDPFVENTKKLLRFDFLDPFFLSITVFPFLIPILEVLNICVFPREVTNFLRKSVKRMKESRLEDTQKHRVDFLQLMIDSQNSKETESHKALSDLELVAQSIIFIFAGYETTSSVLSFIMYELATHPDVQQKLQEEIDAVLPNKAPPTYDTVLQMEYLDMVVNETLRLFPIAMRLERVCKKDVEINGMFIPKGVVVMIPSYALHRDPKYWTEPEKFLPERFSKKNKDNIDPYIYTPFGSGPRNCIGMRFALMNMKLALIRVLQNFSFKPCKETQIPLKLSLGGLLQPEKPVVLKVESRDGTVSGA
T1 sequence (Q00975 whole entry): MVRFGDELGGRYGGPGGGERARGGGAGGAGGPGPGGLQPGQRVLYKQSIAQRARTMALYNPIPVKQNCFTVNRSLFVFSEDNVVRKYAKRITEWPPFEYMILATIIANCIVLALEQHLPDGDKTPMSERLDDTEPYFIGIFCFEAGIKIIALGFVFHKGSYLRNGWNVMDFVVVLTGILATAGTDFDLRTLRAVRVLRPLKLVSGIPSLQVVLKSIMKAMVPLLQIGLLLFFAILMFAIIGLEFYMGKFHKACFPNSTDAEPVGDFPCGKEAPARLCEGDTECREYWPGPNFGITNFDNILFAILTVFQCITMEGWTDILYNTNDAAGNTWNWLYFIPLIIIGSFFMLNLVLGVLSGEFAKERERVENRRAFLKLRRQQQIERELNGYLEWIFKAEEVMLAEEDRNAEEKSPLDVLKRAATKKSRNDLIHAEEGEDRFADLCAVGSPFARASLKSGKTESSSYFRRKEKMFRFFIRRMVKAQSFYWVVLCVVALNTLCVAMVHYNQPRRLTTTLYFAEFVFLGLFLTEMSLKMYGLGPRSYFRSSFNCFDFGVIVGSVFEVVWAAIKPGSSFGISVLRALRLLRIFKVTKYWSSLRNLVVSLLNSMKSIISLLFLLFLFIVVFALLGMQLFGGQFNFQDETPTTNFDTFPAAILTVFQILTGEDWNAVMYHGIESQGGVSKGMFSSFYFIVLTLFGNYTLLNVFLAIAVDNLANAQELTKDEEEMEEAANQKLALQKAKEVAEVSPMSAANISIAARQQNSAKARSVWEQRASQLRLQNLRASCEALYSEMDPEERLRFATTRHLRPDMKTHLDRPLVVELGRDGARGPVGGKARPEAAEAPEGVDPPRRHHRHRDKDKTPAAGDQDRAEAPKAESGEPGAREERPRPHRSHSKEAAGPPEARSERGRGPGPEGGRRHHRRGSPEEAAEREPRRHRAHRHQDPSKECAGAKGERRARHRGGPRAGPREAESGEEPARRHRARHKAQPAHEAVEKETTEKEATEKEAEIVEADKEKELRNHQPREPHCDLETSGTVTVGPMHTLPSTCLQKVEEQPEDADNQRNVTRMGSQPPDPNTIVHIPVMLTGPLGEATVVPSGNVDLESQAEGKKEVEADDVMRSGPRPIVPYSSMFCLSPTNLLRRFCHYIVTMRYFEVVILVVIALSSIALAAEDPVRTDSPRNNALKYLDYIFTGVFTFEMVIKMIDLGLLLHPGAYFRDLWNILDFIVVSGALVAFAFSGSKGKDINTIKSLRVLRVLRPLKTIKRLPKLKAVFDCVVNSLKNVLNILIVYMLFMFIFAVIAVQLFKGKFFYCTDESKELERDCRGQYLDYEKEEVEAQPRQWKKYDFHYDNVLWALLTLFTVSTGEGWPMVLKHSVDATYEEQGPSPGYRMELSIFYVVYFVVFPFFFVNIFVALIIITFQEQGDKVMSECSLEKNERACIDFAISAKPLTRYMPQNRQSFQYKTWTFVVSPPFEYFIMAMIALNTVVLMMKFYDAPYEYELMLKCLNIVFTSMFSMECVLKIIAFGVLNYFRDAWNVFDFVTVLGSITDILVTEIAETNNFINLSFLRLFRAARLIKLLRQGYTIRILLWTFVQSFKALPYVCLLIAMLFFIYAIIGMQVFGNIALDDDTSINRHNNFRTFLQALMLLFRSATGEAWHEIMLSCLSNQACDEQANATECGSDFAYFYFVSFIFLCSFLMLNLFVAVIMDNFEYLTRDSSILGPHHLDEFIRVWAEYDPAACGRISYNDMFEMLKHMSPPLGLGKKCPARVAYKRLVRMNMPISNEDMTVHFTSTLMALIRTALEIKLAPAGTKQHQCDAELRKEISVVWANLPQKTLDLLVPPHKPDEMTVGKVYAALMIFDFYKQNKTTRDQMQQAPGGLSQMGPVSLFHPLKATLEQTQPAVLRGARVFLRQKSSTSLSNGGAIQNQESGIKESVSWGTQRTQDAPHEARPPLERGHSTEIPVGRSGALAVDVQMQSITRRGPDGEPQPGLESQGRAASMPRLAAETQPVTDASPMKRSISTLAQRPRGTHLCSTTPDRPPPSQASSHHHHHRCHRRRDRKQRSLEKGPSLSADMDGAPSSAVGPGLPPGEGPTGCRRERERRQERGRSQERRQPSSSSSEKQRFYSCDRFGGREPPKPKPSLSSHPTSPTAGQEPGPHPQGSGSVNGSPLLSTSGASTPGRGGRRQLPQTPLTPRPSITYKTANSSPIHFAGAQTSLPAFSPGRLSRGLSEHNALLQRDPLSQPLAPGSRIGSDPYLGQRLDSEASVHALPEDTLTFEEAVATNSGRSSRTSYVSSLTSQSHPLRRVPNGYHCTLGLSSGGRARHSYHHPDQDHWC
T1 sequence (Q02410 whole entry): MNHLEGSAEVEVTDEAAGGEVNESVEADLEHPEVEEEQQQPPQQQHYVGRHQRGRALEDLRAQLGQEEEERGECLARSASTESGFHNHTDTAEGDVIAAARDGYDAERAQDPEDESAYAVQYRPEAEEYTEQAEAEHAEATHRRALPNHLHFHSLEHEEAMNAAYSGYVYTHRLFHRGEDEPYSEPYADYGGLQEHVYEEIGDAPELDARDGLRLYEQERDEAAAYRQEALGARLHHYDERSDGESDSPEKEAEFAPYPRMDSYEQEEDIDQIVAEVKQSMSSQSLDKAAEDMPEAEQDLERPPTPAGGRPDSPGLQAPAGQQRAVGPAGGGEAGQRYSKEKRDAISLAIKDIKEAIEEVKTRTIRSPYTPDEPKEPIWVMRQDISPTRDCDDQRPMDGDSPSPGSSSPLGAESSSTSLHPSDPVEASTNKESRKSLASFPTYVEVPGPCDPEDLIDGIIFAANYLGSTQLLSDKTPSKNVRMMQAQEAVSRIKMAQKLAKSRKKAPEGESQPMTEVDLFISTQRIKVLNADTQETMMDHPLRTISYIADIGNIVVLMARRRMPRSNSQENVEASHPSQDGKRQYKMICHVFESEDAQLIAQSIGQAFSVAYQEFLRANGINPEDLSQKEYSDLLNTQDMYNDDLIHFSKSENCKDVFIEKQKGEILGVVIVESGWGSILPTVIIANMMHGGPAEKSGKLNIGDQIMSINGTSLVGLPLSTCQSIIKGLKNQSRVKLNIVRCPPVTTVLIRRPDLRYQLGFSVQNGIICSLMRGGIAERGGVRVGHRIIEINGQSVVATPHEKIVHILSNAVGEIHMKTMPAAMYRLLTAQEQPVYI
Chain of Cytochrome P450 2C9 (P11712 whole entry): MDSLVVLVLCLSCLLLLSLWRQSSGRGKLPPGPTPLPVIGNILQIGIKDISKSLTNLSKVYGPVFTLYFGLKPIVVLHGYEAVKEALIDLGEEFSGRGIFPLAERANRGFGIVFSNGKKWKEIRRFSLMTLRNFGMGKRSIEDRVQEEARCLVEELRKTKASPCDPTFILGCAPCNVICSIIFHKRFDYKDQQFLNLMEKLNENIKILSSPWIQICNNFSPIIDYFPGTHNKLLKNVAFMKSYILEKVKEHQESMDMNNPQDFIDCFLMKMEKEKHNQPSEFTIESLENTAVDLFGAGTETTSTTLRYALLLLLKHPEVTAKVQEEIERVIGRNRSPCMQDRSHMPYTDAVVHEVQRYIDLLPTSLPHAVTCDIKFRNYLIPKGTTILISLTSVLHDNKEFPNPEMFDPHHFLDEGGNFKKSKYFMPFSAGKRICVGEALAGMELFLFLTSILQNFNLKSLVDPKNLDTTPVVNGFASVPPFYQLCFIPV

Question: Which AC50 (Cytochrome P450 3A4) does the source give for `O=C(NCc1ccccn1)c1cc(-c2ccccc2Cl)on1` here?
Answer: 15.8 µM (inconclusive)

Question: And the AC50 (Cytochrome P450 2C9)?
Answer: inconclusive

Question: What about the AC50 (Cytochrome P450 2D6) of the same compound?
Answer: inconclusive

Question: With `CCOC(=O)N1CCC(NC(=O)CSc2cc(=O)n(C)c3ccccc23)CC1` as the compound, how does the EC50 [1] read?
Answer: > 79.4 µM (not active)

Question: And the EC50 [2]?
Answer: > 79.4 µM (not active)

Question: And the EC50 [3]?
Answer: > 79.4 µM (inactive)

Question: What does the source list for `Oc1ccc(NCc2cccs2)cc1`?
Answer: IC50 (Large T antigen): 28.7 µM (active); CC50 (Vero): > 40 µM (active)

Question: For `COc1ccc(NC(=O)N2CC[C@@]3(CCCN(C(=O)c4cnccn4)C3)C2)cc1`, which AC50 (Cytochrome P450 3A4) is on record?
Answer: 3.16 µM (inconclusive)

Question: And the AC50 (Cytochrome P450 2D6)?
Answer: inconclusive

Question: For `c1ccc(-n2nnc3c(N4CCOCC4)ncnc32)cc1`, which EC50 [4] is on record?
Answer: 7.18 µM (inconclusive)

Question: What about the AC50 [5] of the same compound?
Answer: > 52 µM (inactive)

Question: And the EC50 [6]?
Answer: 8.24 µM (active)

Question: What about the AC50 [7] of the same compound?
Answer: 8.39 µM (active)

Question: What about the AC50 [8] of the same compound?
Answer: > 52 µM (inactive)

Question: What about the AC50 (HEK293 [9]) of the same compound?
Answer: 2.47 µM (active)

Question: And the EC50 [10]?
Answer: 6.29 µM (inconclusive)

Question: And the CC50 [11]?
Answer: 23.6 µM (active)

Question: And the AC50 [12]?
Answer: 7.67 µM (active)

Question: With `Cc1[nH]c(O)nc1C(=O)CCCCC(=O)O` as the compound, how does the IC50 (HEK293 [13]) read?
Answer: > 89.3 µM (inactive)

Question: And the EC50 (HEK293 [14])?
Answer: 22.6 µM (inactive)

Question: With `CC1=C(C(=O)O)N2C(=O)[C@@H](NC(=O)CCCC(=O)O)[C@H]2SC1` as the compound, how does the IC50 [15] read?
Answer: 34 µM (active)

Question: What about the IC50 [16] of the same compound?
Answer: > 50 µM (inactive)

Question: For `Cc1ccc(/C=C/C(=O)C2C(=O)c3ccccc3C2=O)cc1`, which EC50 (Streptokinase A) is on record?
Answer: > 150 µM (not active)

Question: What about the EC50 [17] of the same compound?
Answer: 1.95 µM (active)

Question: What about the AC50 (HEK293 [9]) of the same compound?
Answer: 4.18 µM (active)

Question: What about the EC50 (Streptococcus) of the same compound?
Answer: 9.64 µM (active)

Question: For `COC(=O)CSc1nc2cc(C)ccc2cc1C#N`, which EC50 [18] is on record?
Answer: > 99 µM (inactive)

Question: And the EC50 [19]?
Answer: > 99 µM (inactive)

Question: What does the source list for `Nc1c(C(=O)NC2CCCC2)sc2nc(-c3cccs3)ccc12`?
Answer: EC50 [18]: > 99 µM (inactive); EC50 [19]: 54 µM (inactive)
